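1) Cells in 96-well plates. 2) Compound, 48 h, 5 concentrations. 3) Linear interpolation between surrounding doses. 4) Unreached endpoint = highest concentration. GI50: concentration for 50% inhibition of growth. At the TGI there is no net growth.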

Test systems include A498 renal; HCT-15 colon; M14 melanoma; NCI-H522 lung; SK-MEL-2 melanoma; SN12C renal; SNB-19 CNS; SNB-75 CNS; SR leukemia; UACC-62 melanoma.
What all share (experiment): DTP human tumour cell line panel, 48 h

Regarding `CC(C)(C)NNC(=O)/C(=C/c1ccc(Oc2ccc(Cl)c(Cl)c2)cc1)NC(=O)c1ccccc1`, the TGI in the test on A498 renal, with HCT-15 colon, with M14 melanoma, in the test with NCI-H522 lung, with SK-MEL-2 melanoma and in the test on SN12C renal was greater than 100 µM each time. For the same compound, the TGI was greater than 100 µM in the test with SNB-19 CNS, greater than 100 µM with SNB-75 CNS, 35.9 µM in the test on SR leukemia and greater than 100 µM in the test on UACC-62 melanoma.
As to `CCN(CC)CCCN(c1cc(OC)cc2nccnc12)S(=O)(=O)c1ccc(C)cc1`, the TGI in the test on A498 renal, in the test on HCT-15 colon, with M14 melanoma, in the test on NCI-H522 lung, in the test on SK-MEL-2 melanoma and in the test with SN12C renal was greater than 100 µM in each case. Also, the concentration for total growth inhibition (TGI) with SNB-19 CNS, with SNB-75 CNS, in the test on SR leukemia and with UACC-62 melanoma was greater than 100 µM in each case.
On to `Nc1ccccc1C#CC#Cc1ccccc1N`, for which the GI50 was 11.4 µM in the test with HCT-15 colon; 7.34 µM in the test on M14 melanoma; 11.5 µM with NCI-H522 lung; 21.7 µM with SK-MEL-2 melanoma; 14.7 µM in the test with SN12C renal; greater than 100 µM with SNB-19 CNS. The GI50 with SNB-75 CNS is 32.3 µM; in the test on UACC-62 melanoma, 11.8 µM. The TGI with HCT-15 colon is 25.5 µM; in the test on M14 melanoma, 65.8 µM; in the test on NCI-H522 lung it was 38.6 µM; in the test on SK-MEL-2 melanoma, 51.7 µM; with SN12C renal, 31.4 µM; in the test on SNB-19 CNS it was greater than 100 µM. Also, the values for the total growth inhibition concentration (TGI) in the test with SNB-75 CNS, with SR leukemia and with UACC-62 melanoma were greater than 100 µM, 69.8 µM and 25.3 µM, respectively.
In the case of `N#CC1=C(N)Oc2cc3c(cc2C1c1cccs1)OCO3` (stereo not drawn), the GI50 with A498 renal is 0.234 µM; in the test on HCT-15 colon, 0.486 µM; in the test with M14 melanoma, 0.387 µM; in the test on NCI-H522 lung, 0.19 µM; in the test with SK-MEL-2 melanoma, 0.252 µM; in the test on SN12C renal, 0.723 µM. Further, the GI50 in the test on SNB-19 CNS was 1.36 µM; in the test on SNB-75 CNS, 0.367 µM; with SR leukemia it was 0.27 µM; in the test on UACC-62 melanoma it was 0.485 µM. The concentration for total growth inhibition (TGI) in the test on A498 renal is 10.2 µM; in the test with HCT-15 colon it was greater than 100 µM; in the test on M14 melanoma, greater than 100 µM; in the test on NCI-H522 lung, 0.639 µM; with SK-MEL-2 melanoma it was 0.783 µM; with SN12C renal it was greater than 100 µM. Moreover, the total growth inhibition concentration (TGI) in the test on SNB-19 CNS was greater than 100 µM; with SNB-75 CNS, 4.74 µM; in the test with SR leukemia, greater than 100 µM; in the test with UACC-62 melanoma it was greater than 100 µM.
Turning to `COC(=O)c1c[nH]cc1CCc1c[nH]cc1C(=O)OC`, the total growth inhibition concentration (TGI) in the test with A498 renal, in the test on HCT-15 colon, with NCI-H522 lung, in the test on SK-MEL-2 melanoma, in the test with SN12C renal and in the test on SNB-19 CNS was greater than 100 µM in each case. The same compound registered a TGI with SR leukemia greater than 100 µM.
With `Cc1ccc(Nc2nc(NCCO)c3ccccc3n2)cc1C`, the GI50 is 0.0535 µM in the test with A498 renal; 3.26 µM with HCT-15 colon; 4.68 µM in the test on NCI-H522 lung; 11.3 µM with SK-MEL-2 melanoma; 10.3 µM with SN12C renal; 11.5 µM in the test with SNB-19 CNS. The GI50 in the test with SNB-75 CNS was 8.14 µM; with SR leukemia, 2.28 µM; in the test on UACC-62 melanoma it was 12.1 µM. Moreover, the concentration for total growth inhibition (TGI) in the test with A498 renal was determined as 2.06 µM; in the test with HCT-15 colon it was 13.3 µM; in the test with NCI-H522 lung, 18 µM; in the test with SK-MEL-2 melanoma, 24 µM; with SN12C renal, 24.4 µM; with SNB-19 CNS, 24.8 µM. Also, the figures for the TGI in the test with SNB-75 CNS, with SR leukemia and with UACC-62 melanoma were 20.9 µM, 6.08 µM and 25.3 µM, respectively.
As for `O=C(Nc1ccc(-c2nc3cc4ccccc4cc3[nH]2)cc1)c1cccc(Br)c1`, the GI50 is 47.1 µM in the test on A498 renal; 4.12 µM in the test with HCT-15 colon; 7.59 µM in the test on M14 melanoma; 12.1 µM in the test with NCI-H522 lung; 8.67 µM in the test on SN12C renal; 39.2 µM with SNB-19 CNS. The GI50 was 12.4 µM with SNB-75 CNS, 2.34 µM with SR leukemia and 15.8 µM in the test with UACC-62 melanoma. Further, the TGI in the test with A498 renal was greater than 100 µM; in the test with HCT-15 colon, 42.1 µM; with M14 melanoma, 24.8 µM; in the test with NCI-H522 lung, 31.8 µM; in the test on SN12C renal, 34.9 µM; in the test with SNB-19 CNS, greater than 100 µM. Also, the TGI with SNB-75 CNS amounted to 26.4 µM; in the test with SR leukemia it was 8.66 µM; with UACC-62 melanoma, 30.5 µM.
As for `CCCN1C(=O)C/C(=C\C(C)=O)Nc2ccccc21`, the TGI with HCT-15 colon, in the test with M14 melanoma, with NCI-H522 lung, with SK-MEL-2 melanoma, in the test on SN12C renal and with SNB-19 CNS was greater than 100 µM throughout. Besides, the concentration for total growth inhibition (TGI) in the test with SNB-75 CNS, in the test with SR leukemia and in the test on UACC-62 melanoma was greater than 100 µM throughout.
In the case of `CCCc1c2c([nH]c(=O)c1C)C(=O)c1[nH]c(=O)c(C)c(CCC)c1C2=O`, the TGI with A498 renal is greater than 100 µM; in the test on HCT-15 colon, 58.3 µM; in the test on M14 melanoma, 17.3 µM; in the test on SN12C renal it was 22.2 µM; in the test on SNB-19 CNS, 55 µM; with SNB-75 CNS it was 55.9 µM. The compound further registered a total growth inhibition concentration (TGI) in the test on SR leukemia of 42.2 µM.
For the compound `C=CC1(C)CCC(C(C)C(=O)C(C=C(C)C)OC(C)=O)C12C(=O)Oc1ccccc1C2=O` (stereo not drawn), the TGI with HCT-15 colon, in the test on M14 melanoma, in the test on NCI-H522 lung, in the test on SK-MEL-2 melanoma, in the test with SN12C renal and in the test with SNB-19 CNS was greater than 100 µM throughout. For the same compound, the total growth inhibition concentration (TGI) with SNB-75 CNS, in the test with SR leukemia and with UACC-62 melanoma was greater than 100 µM throughout.
Take `OCCN(CCO)N=Nc1ccc(-c2nc3ccccc3[nH]2)cc1`: the GI50 in the test on HCT-15 colon was 21.8 µM; in the test with M14 melanoma, 46.4 µM; in the test with NCI-H522 lung, 50.2 µM; with SK-MEL-2 melanoma it was 41.2 µM; in the test on SN12C renal, 85.5 µM; with SNB-19 CNS it was greater than 100 µM. The GI50 was 28.9 µM in the test on SNB-75 CNS, 20.3 µM in the test with SR leukemia and 35.2 µM in the test with UACC-62 melanoma. Further, the total growth inhibition concentration (TGI) was 51.2 µM in the test with HCT-15 colon; greater than 100 µM in the test with M14 melanoma; greater than 100 µM with NCI-H522 lung; greater than 100 µM in the test on SK-MEL-2 melanoma; greater than 100 µM in the test on SN12C renal; greater than 100 µM with SNB-19 CNS. In addition, the TGI is greater than 100 µM with SNB-75 CNS, 58.2 µM in the test with SR leukemia and greater than 100 µM in the test with UACC-62 melanoma.
